The target of series [1] is T1, dopamine-D2 receptors (Rattus norvegicus, UniProt P61169).
T1 construct: labels dopamine receptors in rat pituitary and brain; from tissue
Description: In vitro affinity for dopamine-D2 receptors ([3H]-spiroperidol receptor binding assay). The conditions noted are these: read-out: Dopamine-D2 binding pKi (converted). The protocol:
In Vitro Affinity for Dopamine-D2 Receptors
Affinity of the compounds for dopamine-D2 receptors was determined using the receptor binding assay described by 1. Creese, R. Schneider and S. H. Snyder: “[^3H]-Spiroperidol labels dopamine receptors in rat pituitary and brain”, Eur. J. Pharmacol., 46, 377-381, 1977.

The target of series [2] is T2, Human dopamine D2,L receptors (Homo sapiens, UniProt P14416).
T2 construct: host or cells: CHO-K1
Description: Inhibition of forskolin-induced [3H]-cAMP accumulation in CHO-K1 cells. It is filed as cell-based. The conditions noted are these: cloned human dopamine D2,L receptors in CHO-K1 cells; full agonist ε=1, full antagonist ε=0. The protocol:
Inhibition of Forskolin-Induced [^3H]-cAMP Accumulation
The in vitro functional activity at dopamine-D2 receptors, including the intrinsic activity (ε) of the compounds of the invention was measured by their ability to inhibit forskolin-induced [^3H]-cAMP accumulation.
Human dopamine D2,L receptors were cloned in fibroblast cell line CHO-K1 cells and obtained from Dr. Grandy, Vollum Institute, Portland, Oreg., USA. CHO cells were grown in a Dulbecco's modified Eagle's medium (DMEM) culture medium, supplemented with 10% heat-inactivated fetal calf serum, 2 mM glutamine, 1 mM pyruvate, 5000 units/ml penicillin, 5000 μg/ml streptomycin and 200 μg/ml G-418 at 37° C. in 93% air/7% CO2. For incubation with test compounds, confluent cultures grown in 24 wells plates were used. Each condition or substance was routinely tested in quadruplicate. Cells were loaded with 1 μCi [^3H]-adenine in 0.5 ml medium/well. After 2 hours, cultures were washed with 0.5 ml PBS containing 1 mM of the phosphodiesterase inhibitor isobutylmethylxanthine (IBMX) and incubated for 20 min with 0.5 ml PBS containing 1 mM IBMX and forskolin with or without test compound. After aspiration the reaction was stopped with 1 ml trichloroacetic acid 5% (w/v). […] 0.8 ml Extract was passed over Dowex (50WX-4 200-400 mesh) and aluminumoxide columns, eluted with water and 0.1M imidazole (pH=7.5). Eluates were mixed with 7 ml Insta-gel and radioactivity was counted with a liquid scintillation counter. The conversion of [^3H]-ATP into [^3H]-cAMP was expressed as the ratio in percentage radioactivity in the cAMP fraction as compared to combined radioactivity in both cAMP and ATP fractions, and basal activity was subtracted to correct for spontaneous activity.
Test compounds were obtained as 10 mM stock solutions in 100% DMSO, and diluted in PBS/IBMX to final concentrations. Typically, compounds were used in concentrations that ranged from 10^−10M to 10^−5M. From quadruplicate data counts, the mean was taken as an estimate for drug-induced, receptor-mediated effects at specified second messenger accumulation, expressed as percentage of control values (forskolin-stimulated cAMP accumulation, subtracted by basal activity). By using the non-linear curve-fitting program INPLOT or the Excel-add-in XL-Fit, mean values were plotted against drug concentration (in molar) and a sigmoid curve (four-parameter logistic curve) was constructed. The maximal forskolin-induced stimulated conversion is taken as maximum value and the maximal inhibition (usually at drug concentrations 10^−6 M or 10^−5 M) as minimum and these values were fixed during the fitting process. Thus, concentrations of the compound, causing 50% of the maximally obtained inhibition of forskolin-induced cAMP accumulation (EC50), are averaged over several experiments and presented as mean pEC50±SEM. Antagonist potency is assessed by co-incubating cells with a fixed agonist concentration and specified antagonist concentrations. Curve fitting procedures are identical to those used for estimating EC50 values. Thus IC50 values, i.e. the concentration that is able to achieve 50% of maximal antagonism that can be achieved by this compound. IC50 values are corrected using a Cheng-Prussoff equation, correcting it for agonist concentration and EC50 values that is obtained in the same experiment. Thus, Kb=IC50/(1+[agonist]/EC50, agonist). The corresponding pA2 value is −log (Kb). Concentration-response curve fitting allows estimation of pEC50 values and of maximal achievable effect (intrinsic activity or efficacy (ε). A full receptor agonist has ε=1, a full receptor antagonist has ε=0, and a partial receptor agonist has an intermediate intrinsic activity.

Series [3] has as its target T3, serotonin reuptake sites (Rattus norvegicus, UniProt P31652).
T3 construct: from tissue
The series is described as follows: In vitro affinity for serotonin reuptake sites ([3H]-paroxetine binding assay). The note with it: receptor binding; read-out: 5-HT reuptake binding pKi (converted). As to the method:
In Vitro Affinity for Serotonin Reuptake Sites
Affinity of the compounds for serotonin reuptake sites was determined using the receptor binding assay described by E. Habert et al.: “Characterisation of [^3H]-paroxetine binding to rat cortical membranes”, Eur. J. Pharmacol., 118, 107-114, 1985.

Counter-ions that a name gives are not always drawn.

T2 sequence (P14416 whole entry): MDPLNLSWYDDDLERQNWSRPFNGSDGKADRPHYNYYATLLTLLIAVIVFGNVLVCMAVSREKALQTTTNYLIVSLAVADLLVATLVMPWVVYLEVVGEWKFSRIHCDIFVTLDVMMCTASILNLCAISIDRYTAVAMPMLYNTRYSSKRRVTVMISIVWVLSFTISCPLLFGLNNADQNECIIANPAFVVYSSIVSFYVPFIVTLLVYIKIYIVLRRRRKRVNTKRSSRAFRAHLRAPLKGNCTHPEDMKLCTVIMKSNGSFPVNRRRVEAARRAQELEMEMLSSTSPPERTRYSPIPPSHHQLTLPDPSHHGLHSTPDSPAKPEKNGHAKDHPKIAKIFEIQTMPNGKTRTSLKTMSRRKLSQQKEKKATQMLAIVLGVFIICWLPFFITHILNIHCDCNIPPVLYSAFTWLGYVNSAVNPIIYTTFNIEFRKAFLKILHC
T1 sequence (P61169 whole entry): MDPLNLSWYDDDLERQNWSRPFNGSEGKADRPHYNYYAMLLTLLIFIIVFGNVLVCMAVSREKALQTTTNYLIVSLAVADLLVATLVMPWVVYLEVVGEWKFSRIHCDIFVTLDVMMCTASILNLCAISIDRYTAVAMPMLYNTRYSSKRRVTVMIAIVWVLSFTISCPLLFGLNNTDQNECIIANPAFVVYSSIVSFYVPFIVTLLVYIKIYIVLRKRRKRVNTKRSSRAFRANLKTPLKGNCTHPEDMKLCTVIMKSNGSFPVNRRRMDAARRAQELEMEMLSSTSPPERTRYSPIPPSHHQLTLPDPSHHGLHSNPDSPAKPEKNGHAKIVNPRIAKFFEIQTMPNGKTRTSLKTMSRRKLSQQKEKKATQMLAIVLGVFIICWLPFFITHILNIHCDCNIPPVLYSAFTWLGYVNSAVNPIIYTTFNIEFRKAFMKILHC
T3 sequence (P31652 whole entry): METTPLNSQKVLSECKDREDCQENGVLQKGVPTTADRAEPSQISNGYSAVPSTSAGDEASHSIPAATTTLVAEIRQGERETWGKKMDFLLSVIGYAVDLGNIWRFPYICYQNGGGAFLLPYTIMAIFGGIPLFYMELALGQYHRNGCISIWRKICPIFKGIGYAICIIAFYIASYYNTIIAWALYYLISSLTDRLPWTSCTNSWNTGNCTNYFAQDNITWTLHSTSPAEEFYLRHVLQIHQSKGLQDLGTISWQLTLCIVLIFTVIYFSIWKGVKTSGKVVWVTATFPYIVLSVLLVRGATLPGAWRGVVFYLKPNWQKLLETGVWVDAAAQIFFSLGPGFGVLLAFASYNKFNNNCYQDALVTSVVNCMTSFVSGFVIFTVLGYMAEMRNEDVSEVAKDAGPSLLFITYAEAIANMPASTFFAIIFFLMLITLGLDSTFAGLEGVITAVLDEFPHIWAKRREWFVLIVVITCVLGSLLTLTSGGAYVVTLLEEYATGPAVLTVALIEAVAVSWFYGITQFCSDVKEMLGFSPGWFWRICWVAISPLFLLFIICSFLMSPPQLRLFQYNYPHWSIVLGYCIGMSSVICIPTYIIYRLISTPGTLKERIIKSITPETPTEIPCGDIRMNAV

`CN(CCN1CCN(c2cccc3[nH]c(=O)oc23)CC1)c1cccc(C#N)c1` (as salt: HCl) [compound 14] had a melting point of 230 to 231 °C.
`CN(CCCN1CCN(c2cccc3[nH]c(=O)oc23)CC1)c1cccc(C#N)c1` (as salt: HCl) [compound 15] had a melting point of 195 to 196 °C.
Same read-out and setting: then `N#Cc1cccc(SCCCCN2CCN(c3cccc4[nH]c(=O)oc34)CC2)c1` (as salt: HCl) [compound 20], with 168 to 170 °C; and `N#Cc1cccc(OCCCN2CCN(c3cc(Cl)cc4[nH]c(=O)oc34)CC2)c1` (as salt: HCl) [compound 26], with 251 to 254 °C.
As for `N#Cc1cccc(OCCCCN2CCN(c3cccc4[nH]c(=O)oc34)CC2)c1` [compound 6], the melting point is 165 to 168 °C. For the same molecule, in series [1], the Ki is 1 nM. The “Dopamine-D2 cAMP accum ε (intrinsic activity)” value (“Dopamine-D2 cAMP accum ε” for short) in series [2] worked out at 0.76. In addition, the Ki in series [3] was 3.98 nM.
Taken in the same sequence, the figures for `O=c1[nH]c2cccc(N3CCN(CCCCOc4cccc(F)c4)CC3)c2o1` [compound 9] were 153 to 155 °C, 6.31 nM, 0.64 and 100 nM.
In the case of `CN(CCN1CCN(c2cccc3[nH]c(=O)oc23)CC1)c1cccc(C#N)c1` [compound 14], the Ki in series [1] is 15.8 nM; in series [3], 1 nM. For the same molecule, the “Dopamine-D2 cAMP accum ε” value in series [2] amounted to 0.57.
Taken in the same sequence, the figures for `CN(CCCN1CCN(c2cccc3[nH]c(=O)oc23)CC1)c1cccc(C#N)c1` [compound 15] were 6.31 nM, 0.794 nM and 0.61.
The molecule `O=c1[nH]c2cccc(N3CCN(CCCOc4cccc(C(F)(F)F)c4)CC3)c2o1` [compound 17] had a melting point of 140 to 142 °C. In addition, the Ki in series [1] was 25.1 nM. Besides, the “Dopamine-D2 cAMP accum ε” value in series [2] was 0.51. Further, the Ki in series [3] is 50.1 nM.
`N#Cc1cccc(SCCCCN2CCN(c3cccc4[nH]c(=O)oc34)CC2)c1` [compound 20]: the Ki in series [1] is 3.98 nM; in series [3] it was 3.16 nM. For the same molecule, the “Dopamine-D2 cAMP accum ε” value in series [2] turned out to be 0.98.
For the molecule `COc1ccc(C#N)cc1OCCCN1CCN(c2cccc3[nH]c(=O)oc23)CC1` [compound 24], the melting point fell in the range of 189 to 190 °C. For the same molecule, the Ki in series [1] was 1.26 nM. The “Dopamine-D2 cAMP accum ε” value in series [2] is listed as 0.86. The Ki in series [3] is 12.6 nM.
As for `N#Cc1cccc(OCCCN2CCN(c3cc(Cl)cc4[nH]c(=O)oc34)CC2)c1` [compound 26], the Ki in series [1] and in series [3] was 10 nM throughout. The “Dopamine-D2 cAMP accum ε” value in series [2] was 0.79.
Consider `Cn1c(=O)oc2c(N3CCN(CCCCOc4cccc(F)c4)CC3)cccc21` [compound 31], for which the melting point fell in the range of 95 to 97 °C. The Ki in series [1] was 63.1 nM. Besides, in series [2], the “Dopamine-D2 cAMP accum ε” value came out at 0.56. Besides, in series [3], the Ki is 5.01 nM.
Turning to `CN(CCCCN1CCN(c2cccc3c2oc(=O)n3C)CC1)c1cccc(C#N)c1` [compound 35], the melting point was 87 to 89 °C. Also, the Ki in series [1] was 100 nM. In series [2], the “Dopamine-D2 cAMP accum ε” value was found to be 0.55. The Ki in series [3] is 0.631 nM.

What is called melting point is the temperature, or range, at which the solid turns liquid.

The record behind these values is patent US8101619B2, “Phenylpiperazine derivatives with a combination of partial dopamine-D2 receptor agonism and serotonin reuptake inhibition” (Solvay Pharmaceuticals B.V., priority 2004, dated 2012).
